In the METLIN SMRT retention time set (Domingo-Almenara et al. 2019) one finds RP-LC retention time data, which are given here for 60 compounds.

Each structure is given as a SMILES string.

The data set can be described thus: gradient 5% acetonitrile 3 min, to 50% in 2 min, to 85% in 15 min, held 3 min, 100 µL/min. The following applies: column: Zorbax Extend-C18 2.1 x 50 mm; eluents: water / acetonitrile, 0.1% formic acid. The method in brief: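 Retention times come from adduct peaks that were picked computationally and then checked by hand. The standards, pure and pooled in mixtures of ~100 molecules, were run on a Zorbax Extend-C18 column (2.1 × 50 mm, 1.8 μm) at 100 μL/min with water and acetonitrile, each with 0.1% formic acid. Detection was by quadrupole time-of-flight mass spectrometry in positive and negative ionization mode, with a dead volume of 40 μL and a dwell volume of 900 μL.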
On to `CCC(=O)Nc1cc2c(cc1Sc1ccc(OC)cc1)n(C)c(=O)n2C`, for which the RP-LC retention time was determined as 974 s. In turn, `COc1ccc(CN2CC3(CCN(S(=O)(=O)c4ccccc4Cl)CC3)C2=O)cc1` gave an RP-LC retention time of 913 s. The same measure for `CC(C)Cn1nc2n(c1=O)CCN(S(=O)(=O)c1cc(F)ccc1F)CC2`: 802 s. Take `CCC1CN2C=Nc3oc(C)c(C(=O)Nc4ccc(C)c(F)c4)c3C2=N1` (stereo not given): the RP-LC retention time is 689 s. Turning to `CCCC1c2nccn2CCCN1C(=O)Cc1c(C)noc1C` (stereo not given), the RP-LC retention time came to 579 s. `Cc1ccc(CNS(=O)(=O)c2cc3n(c2)CCCNC3=O)cc1`: the RP-LC retention time was 658 s.

For the compound `COc1ncc(-c2ccc3nccc(-c4ccnnc4)c3c2)cc1NS(=O)(=O)c1ccc(F)cc1F`, the RP-LC retention time amounted to 785 s.

Take `Cc1ccc(C)c(N2CCN(c3ccnc(SCC(=O)NCCC(C)C)n3)CC2)c1`: the RP-LC retention time was determined as 920 s. As for `CCc1nc2cccnc2n1CCN1CCN(C(=O)Nc2ccc3c(c2)OCCO3)CC1`, the RP-LC retention time is 590 s. As for `OCC(O)COc1cccc2ccccc12` (stereo not given), the RP-LC retention time was determined as 758 s. Regarding `COC(=O)c1cn(CC(=O)Nc2cc(OC)ccc2OC)c2ccccc12`, the RP-LC retention time came out at 946 s. As to `CC(=O)Nc1ccc(OCC(=O)O)nc1`, the RP-LC retention time stood at 574 s. `CC(C)(C)C(=O)N1CCCC(c2ccnc(-c3cccc(F)c3)n2)C1` (stereo not given) yielded an RP-LC retention time of 1130 s.

In turn, `Cc1[nH]c(C(=O)N2CCC(CC(=O)NC(C)c3ccccc3)CC2)c(C)c1C(=O)OC(C)C` (stereo not given) gave an RP-LC retention time of 832 s.

For `Cc1ccc(NC(=O)CSc2nc(=O)n(CCN(C)C)c3c2CCC3)cc1`, the RP-LC retention time was 636 s. Compound `CCCn1cc(C(=O)N2CCCc3ccccc32)c2nn(-c3ccccc3)c(=O)c-2c1` registered an RP-LC retention time of 836 s. `COc1ccc(-c2cn3c(CC(=O)N4CCc5ccccc5C4)csc3n2)cc1OC` displayed an RP-LC retention time of 754 s. The compound `CCCCCn1c(=O)c2ccccc2n(Cc2nc(-c3cccc(C)c3)no2)c1=O` showed an RP-LC retention time of 1310 s. As for `CCC(=O)NCc1csc(C2CCN(C(=O)c3ccc(Br)cc3)CC2)n1`, the RP-LC retention time is 722 s. On to `CCc1cccc(C)c1NC(=O)CSc1ccc(N2CCCC(C(=O)NC3CC3)C2)nn1` (stereo not given), for which the RP-LC retention time stood at 662 s. `CCc1noc(C2CCCCN2Cc2cc(F)ccc2F)n1` (stereo not given): the RP-LC retention time amounted to 939 s.

In turn, `CCCNC(=O)C1CCCN(c2nc3ncn(CC(=O)Nc4ccccc4OCC)c(=O)c3s2)C1` (stereo not given) came in with an RP-LC retention time of 742 s. Compound `Cc1ccc(Nc2c(-c3cc(Br)ccc3F)nc3cccc(C)n23)cc1` came in with an RP-LC retention time of 814 s. Compound `Clc1ccc(-c2ccc(CNCC3CCNCC3)o2)c(Cl)c1` returned an RP-LC retention time of 611 s. `O=C(CCC1CCCC1)N1CCc2c([nH]c3ccccc23)C1c1ccc(F)cc1` (stereo not given) came in with an RP-LC retention time of 1410 s.

On to `CCCS(=O)(=O)N1CC(=O)N(c2cc(Cl)ccc2C)C(C)(C(=O)NC2CCCCC2)C1` (stereo not given), for which the RP-LC retention time amounted to 982 s. The result for `COc1ccccc1N1C(=O)c2cccc3cccc(c23)C1=O` reads 832 s. The same measure for `Cc1cc(C)cc(-c2nc(C3CC(=O)N(c4ccc(F)c(Cl)c4)C3)no2)c1` (stereo not given): 1050 s; for `Cc1ccc2c(Nc3cccc(C)c3C)c(-c3nc(C)no3)cnc2n1`: 797 s.

In the case of `COc1ccc(-c2noc(Cc3nnc(-c4ccc(C)c(C)c4)o3)n2)cc1OC`, the RP-LC retention time turned out to be 997 s. Consider `O=C(CCc1ccccc1)Nc1nc(-c2cccc3ccccc23)cs1`, for which the RP-LC retention time worked out at 1170 s. `Cc1cc(NC(=O)C(C)C2CCN(C(=O)Nc3ccc(Cl)cc3)CC2)ccc1F` (stereo not given): the RP-LC retention time turned out to be 952 s. As to `O=S(=O)(c1cccc(C(F)(F)F)c1)N1CCN(c2cnn3cnnc3c2)CC1`, the RP-LC retention time is 668 s. `O=S(=O)(NCc1cccs1)c1cc(-c2nnc(-c3ccccc3)o2)ccc1F` came in with an RP-LC retention time of 1070 s. Compound `O=C(NCc1csc(-c2cccs2)n1)C1CCN(S(=O)(=O)c2cccs2)CC1` displayed an RP-LC retention time of 830 s. Take `COc1ccc(Cl)cc1NC(=O)CN1CCN(c2ccccc2F)CC1`: the RP-LC retention time amounted to 709 s. The same measure for `CN(Cc1ccccc1)C(=O)c1nnc(-c2ccc(S(=O)(=O)N3CCCCC3)cc2)o1`: 1040 s; for `CCCCn1cc(S(=O)(=O)NCc2ccccc2Cl)c2cccnc21`: 996 s; for `CC(=O)c1ccc(NC(=O)CN2C(=O)NC3(CCC(C)CC3)C2=O)cc1` (stereo not given): 762 s. The same measure for `CCOC(=O)C1CCN(C(=O)c2n[nH]c(=O)c3ccccc23)CC1`: 677 s; for `O=C(Cn1ncc2c(c1=O)N(CC1CC1)C(=O)CS2)Nc1ccccc1C(F)(F)F`: 831 s; for `O=S(=O)(c1cccc(C(F)(F)F)c1)N1CCN(c2ccc(-n3ccnc3)nn2)CC1`: 601 s. On to `COc1ccc(OC)c(NC(=O)N2CCN(c3cc(C)nc(N4CCCC4)n3)CC2)c1`, for which the RP-LC retention time turned out to be 676 s. `CC1(C(=O)NCc2ccccc2)CCCN(C(=O)Nc2ccccc2C(F)(F)F)C1` (stereo not given) gave an RP-LC retention time of 958 s. The result for `Cn1c(CN(c2ccc(F)cc2)S(C)(=O)=O)nnc1SCc1nnc(-c2ccccc2)o1` reads 710 s. The result for `CCCN(Cc1ccc(OC)c(OC)c1)Cc1cc(=O)n2ccc(C)cc2n1` reads 613 s; that for `Cc1ccccc1Oc1nccnc1N1CCCC(C(=O)NCc2cccc(C(F)(F)F)c2)C1` (stereo not given), 1120 s; that for `Cc1oc(C2CCN(C(=O)c3ccc(C#N)cc3)CC2)nc1C(=O)N(C)C`, 654 s.

With `CCc1c(C(=O)O)nnn1-c1ccc(C(F)(F)F)cc1`, the RP-LC retention time was determined as 800 s. In turn, `CCCN1C(=O)CCc2cc(NC(=O)COc3ccc(F)cc3)ccc21` gave an RP-LC retention time of 888 s. For `Cc1cccc(-c2noc(Cn3ncn4nc(-c5ccc(Br)cc5)cc4c3=O)n2)c1`, the RP-LC retention time turned out to be 1260 s. The same measure for `CC(=O)c1cccc(NC(=O)c2cnc(-c3ccccc3)nc2-c2ccncc2)c1`: 800 s.

The compound `CC(C)Cn1cc(S(=O)(=O)NCc2cccc(F)c2)c2cccnc21` returned an RP-LC retention time of 953 s. Regarding `O=C(c1ccc(OCC2CCCN2C(=O)COc2ccc(F)cc2)cc1)N1CCCC1` (stereo not given), the RP-LC retention time is 761 s. Consider `COc1nn(C)cc1C(=O)NCC(=O)NC1CCSC1=O` (stereo not given), for which the RP-LC retention time is 559 s. In the case of `CC(C)n1cnc(S(=O)(=O)N2CCC(C(=O)NC3CCCCCCC3)CC2)c1`, the RP-LC retention time was determined as 827 s.

In the case of `Cc1cc(S(=O)(=O)N(C)CC2CCOC2)ccc1F` (stereo not given), the RP-LC retention time was found to be 836 s.

Compound `COc1cc(Nc2c(C(=O)N3CCCCC3C)cnc3nc(C)ccc23)cc(OC)c1` (stereo not given) had an RP-LC retention time of 649 s.

`CCCCNC(=O)Cn1c(N)nc(CC)cc1=O` gave an RP-LC retention time of 579 s. The compound `CCOC(=O)c1[nH]c(C)c(CCC(=O)NCc2ccc3c(c2)OCO3)c1C` registered an RP-LC retention time of 780 s.
